Assay results from patent publication US20100279990A1, “ANTIPROLIFERATIVE COMPOUNDS, COMPOSITIONS AND METHODS OF USE” (RAMOT AT TEL-AVIV UNIVERSITY LTD., priority 2006, published 2010).
Like-named read-outs stand apart in the source and are kept apart here.

Key:
[1] = tested on: resistant colon carcinoma LS1034 cell-line; experiment: Viability of resistant colon carcinoma LS1034 cell-line (FIG. 7A); format: cell-based; settings: LS-1034, read-out: IC50, inhibition of cell viability
Text: This example illustrates cell viability data obtained by separately administering different concentrations of compound (Ia), sertraline, paroxetine, and doxorubicin to a […] resistant colon carcinoma LS1034 cell-line. The results are depicted in FIG. 7A.

[2] = tested on: human Jurkat lymphoma cells; experiment: Viability of human Jurkat lymphoma cells, alamar blue staining; format: cell-based; settings: for IC50: Homo sapiens, 48 hr, alamar blue
Description: This example illustrates cell viability data derived from the incubation of a human. […] The results are depicted in FIGS. 1A, 1B, and 1C. […] See Nociari et al., J. Immunol. […] Each point represents the mean+/−SE of 4 determinations.

OVXF 899L = experiment: Monolayer Assay, PI: OVXF 899L (Ovarian Cancer); format: cell-based, human
Text: (§1) This example illustrates cell proliferation data in the form of IC50, IC70 and IC90 values obtained by exposure of human cancer cell-lines to compound (Ia). […].

[3] = tested on: c-jun and p-c-jun expression in HaCat cells; experiment: Western blot of c-jun and p-c-jun expression in HaCat cells; format: cell-based, human; settings: 15 μM, 1 hr
Text: For each sample 2×10^7 cells were used. The cells were lysed, and equal amounts of protein was fractionated on polyacrylamide gel and then transferred to PVDF membrane. The amount of the protein was detected by immuno-blotting with monoclonal anti-c-Jun or p-c-Jun antibodies (Cayman, Ann Arbor, Mich., USA). A second antibody conjugated to horseradish peroxidase was used and visualized with chemiluminescent Kit (Pierce, Rockford, Ill., USA) on film. […] Activation of the […] pathway produces p-c-Jun as a major end, while initiating apoptosis in certain cell-lines.

MEXF 276L = experiment: Monolayer Assay, PI: MEXF 276L (Melanoma); format: cell-based, human
Text: as §1

[4] = tested on: human colon carcinoma cells (HT29); experiment: HT29 human colon carcinoma s.c. tumor in Nude CD1 male mice; format: in vivo
Text: This example illustrates the effect of several compounds, including an exemplary compound of the present invention, on tumor volume. tumor weight and body weight in mice. Nude CD1 male mice were purchased from Harlan (Israel). Animals were housed under controlled conditions (temperature, humidity) and were given food and water ad libitum. After one week of acclimatization animals were inoculated s.c. with human colon carcinoma cells (HT29) (2,000,000 cell/animals.). Therapy began 8 days after inoculation, at which time the animals were divided randomly into 4 groups (7-8 mice/group) and administered ip 3 times weekly for 4 weeks with the following compounds: […] Body weight and tumor volume were measured weekly. Tumor volume is defined as (shortest diameter)^2×(longest diameter)×0.5. At the end of the treatment, animals were sacrificed and tumors and organs collected and weighed.

[5] = tested on: human keratinocytes (HaCat cells); experiment: Viability of human keratinocytes (HaCat cells), neutral red staining; format: cell-based; settings: 24 hr, read-out: IC50, cell viability
LXF 526L = experiment: Monolayer Assay, PI: LXF 526L (Lung); format: cell-based, human
Text: as §1

PAXF 1657L = experiment: Monolayer Assay, PI: PAXF 1657L; format: cell-based, human
Text: as §1

[6] = tested on: LS1034 human colon MDR carcinoma cells; experiment: Viability of LS1034 human colon MDR carcinoma cells (FIG. 7B); format: cell-based
Text: This example illustrates cell viability obtained by separately administering different concentrations of compound (Ia), sertraline, doxorubicin, cisplatin, fluorouracil (5-FU), methotrexate (MTX), and vincristin to LS1034 human colon MDR carcinoma cells. The results are depicted in FIG. 7B.

OVXF OVCAR3 = experiment: Monolayer Assay, PI: OVXF OVCAR3 (Ovarian Cancer); format: cell-based, human
Text: as §1

CXF HT29 = experiment: Monolayer Assay, PI: CXF HT29 (Colorectal); format: cell-based, human
Text: as §1

HNXF 536L = experiment: Monolayer Assay, PI: HNXF 536L; format: cell-based, human
Text: as §1

Structure (SMILES): CN[C@H]1CC[C@@H](c2ccc(Cl)c(Cl)c2)c2ccc(C#CCCCO)cc21 [compound (Ia), (1S-cis)-4-(3,4-dichlorophenyl)-7-(5-hydroxy-1-pentyn-1-yl)-1,2,3,4-tetrahydro-N-methyl-1-naphthalenamine hydroiodide]
- IC50 [1]: 11.3 µM
- IC50 ([2]; FIG. 1A, read-out: IC50, anti-proliferative activity): 12.5 µM
- IC50 ([2]; FIG. 1B, read-out: IC50, decrease in cell viability): 16.2 µM
- potency compared with sertraline ([2]; lower concentrations (1-10 μM), FIG. 1B): higher potency than sertraline
- Test/Control (%) (OVXF 899L; 2.3 μg/ml): 94%
- Test/Control activity class (OVXF 899L; 2.3 μg/ml): − (− (T/C = 50))
- Test/Control (%) (OVXF 899L; 7.5 μg/ml): 10%
- Test/Control activity class (OVXF 899L; 7.5 μg/ml): ++ (++ (10 <= T/C < 30))
- Test/Control (%) (OVXF 899L; 23. μg/ml): 3%
- Test/Control activity class (OVXF 899L; 23. μg/ml): +++ (+++ (T/C < 10))
- Test/Control (%) (OVXF 899L; 75. μg/ml): 4%
- Test/Control activity class (OVXF 899L; 75. μg/ml): +++ (+++ (T/C < 10))
- Test/Control (%) (OVXF 899L; .75 μg/ml): 100%
- Test/Control activity class (OVXF 899L; .75 μg/ml): − (− (T/C = 50))
- effect on c-Jun / p-c-Jun (MAPK pathway) [3]: activation of the c-Jun-N-terminal kinase (JNK) pathway
- Test/Control (%) (MEXF 276L; 2.3 μg/ml): 88%
- Test/Control activity class (MEXF 276L; 2.3 μg/ml): − (− (T/C = 50))
- Test/Control (%) (MEXF 276L; 7.5 μg/ml): 30%
- Test/Control activity class (MEXF 276L; 7.5 μg/ml): + (+ (30 <= T/C < 50))
- Test/Control (%) (MEXF 276L; 23. μg/ml): 4%
- Test/Control activity class (MEXF 276L; 23. μg/ml): +++ (+++ (T/C < 10))
- Test/Control (%) (MEXF 276L; 75. μg/ml): 5%
- Test/Control activity class (MEXF 276L; 75. μg/ml): +++ (+++ (T/C < 10))
- Test/Control (%) (MEXF 276L; .75 μg/ml): 95%
- Test/Control activity class (MEXF 276L; .75 μg/ml): − (− (T/C = 50))
- tumor weight ([4]; HT29 tumor in nude mice, end of treatment, FIG. 17): very similar to the tumor weight of mice treated with 5 FU
- tumor volume ([4]; HT29 tumor in nude mice, ip 3 times weekly, after 3 and 4 weeks of therapy, FIG. 16): significantly decreased compared to the control groups
- decrease in body weight ([4]; compared to 5 FU or controls, FIG. 18): 10%
- histopathological assessment of spleen, liver and kidney ([4]; end of treatment): change in capsule fibrosis at random
- efficacy in inhibiting human colon cancer tumor growth ([4]; mice model, 30 mg/kg ip): high efficacy superior to sertraline
- IC50 [5]: 18.5 µM
- Test/Control (%) (LXF 526L; 2.3 μg/ml): 81%
- Test/Control activity class (LXF 526L; 2.3 μg/ml): − (− (T/C = 50))
- Test/Control (%) (LXF 526L; 7.5 μg/ml): 6%
- Test/Control activity class (LXF 526L; 7.5 μg/ml): +++ (+++ (T/C < 10))
- Test/Control (%) (LXF 526L; 23. μg/ml): 5%
- Test/Control activity class (LXF 526L; 23. μg/ml): +++ (+++ (T/C < 10))
- Test/Control (%) (LXF 526L; 75. μg/ml): 4%
- Test/Control activity class (LXF 526L; 75. μg/ml): +++ (+++ (T/C < 10))
- Test/Control (%) (LXF 526L; .75 μg/ml): 92%
- Test/Control activity class (LXF 526L; .75 μg/ml): − (− (T/C = 50))
- Test/Control (%) (PAXF 1657L; 2.3 μg/ml): 92%
- Test/Control activity class (PAXF 1657L; 2.3 μg/ml): − (− (T/C = 50))
- Test/Control (%) (PAXF 1657L; 7.5 μg/ml): 40%
- Test/Control activity class (PAXF 1657L; 7.5 μg/ml): + (+ (30 <= T/C < 50))
- Test/Control (%) (PAXF 1657L; 23. μg/ml): 6%
- Test/Control activity class (PAXF 1657L; 23. μg/ml): +++ (+++ (T/C < 10))
- Test/Control (%) (PAXF 1657L; 75. μg/ml): 5%
- Test/Control activity class (PAXF 1657L; 75. μg/ml): +++ (+++ (T/C < 10))
- Test/Control (%) (PAXF 1657L; .75 μg/ml): 96%
- Test/Control activity class (PAXF 1657L; .75 μg/ml): − (− (T/C = 50))
- effect on resistant cancer cells [6]: has the ability to suppress resistant cancer cells
- Test/Control (%) (OVXF OVCAR3; 2.3 μg/ml): 103%
- Test/Control activity class (OVXF OVCAR3; 2.3 μg/ml): − (− (T/C = 50))
- Test/Control (%) (OVXF OVCAR3; 7.5 μg/ml): 78%
- Test/Control activity class (OVXF OVCAR3; 7.5 μg/ml): − (− (T/C = 50))
- Test/Control (%) (OVXF OVCAR3; 23. μg/ml): 4%
- Test/Control activity class (OVXF OVCAR3; 23. μg/ml): +++ (+++ (T/C < 10))
- Test/Control (%) (OVXF OVCAR3; 75. μg/ml): 5%
- Test/Control activity class (OVXF OVCAR3; 75. μg/ml): +++ (+++ (T/C < 10))
- Test/Control (%) (OVXF OVCAR3; .75 μg/ml): 109%
- Test/Control activity class (OVXF OVCAR3; .75 μg/ml): − (− (T/C = 50))
- Test/Control (%) (CXF HT29; 2.3 μg/ml): 100%
- Test/Control activity class (CXF HT29; 2.3 μg/ml): − (− (T/C = 50))
- Test/Control (%) (CXF HT29; 7.5 μg/ml): 3%
- Test/Control activity class (CXF HT29; 7.5 μg/ml): +++ (+++ (T/C < 10))
- Test/Control (%) (CXF HT29; 23. μg/ml): 1%
- Test/Control activity class (CXF HT29; 23. μg/ml): +++ (+++ (T/C < 10))
- Test/Control (%) (CXF HT29; 75. μg/ml): 1%
- Test/Control activity class (CXF HT29; 75. μg/ml): +++ (+++ (T/C < 10))
- Test/Control (%) (CXF HT29; .75 μg/ml): 99%
- Test/Control activity class (CXF HT29; .75 μg/ml): − (− (T/C = 50))
- Test/Control (%) (HNXF 536L; 2.3 μg/ml): 102%
- Test/Control activity class (HNXF 536L; 2.3 μg/ml): − (− (T/C = 50))
- Test/Control (%) (HNXF 536L; 7.5 μg/ml): 97%
- Test/Control activity class (HNXF 536L; 7.5 μg/ml): − (− (T/C = 50))
- Test/Control (%) (HNXF 536L; 23. μg/ml): 4%
- Test/Control activity class (HNXF 536L; 23. μg/ml): +++ (+++ (T/C < 10))
- Test/Control (%) (HNXF 536L; 75. μg/ml): 3%
- Test/Control activity class (HNXF 536L; 75. μg/ml): +++ (+++ (T/C < 10))
- Test/Control (%) (HNXF 536L; .75 μg/ml): 112%
- Test/Control activity class (HNXF 536L; .75 μg/ml): − (− (T/C = 50))
